Assay results from ChEMBL document CHEMBL5236583, “Semisynthesis, biological activities, and mechanism studies of Mannich base analogues of magnolol/honokiol as potential α-glucosidase inhibitors” (Bioorg Med Chem, 2022).
The source made the active and inactive calls. The rule behind the calls is not given here.

Columns and labels:
[1] = target: Maltase-glucoamylase (Homo sapiens) (UniProt O43451); test: Inhibition of alpha-glucosidase (unknown origin) using pNPG as substrate at 64 uM preincubated with enzyme for 15 mins followed by substrate addition and measured after 10 mins by microplate reader analysis; conditions: time 25.0 min
[2] = Cytotoxicity against human L02 cells assessed as cell viability at 64 uM by CCK8 assay; format: toxicity, cell-based; conditions: read-out: Activity
[3] = target: Maltase-glucoamylase (Homo sapiens) (UniProt O43451); test: Reversible inhibition of alpha-glucosidase (unknown origin) using pNPG as substrate assessed as reduction in velocity of enzyme-catalyzed reaction
[4] = target: Maltase-glucoamylase (Homo sapiens) (UniProt O43451); test: Non-competitive inhibition of alpha-glucosidase (unknown origin) using pNPG as substrate preincubated with enzyme for 15 mins followed by substrate addition and measured for 15 mins by Lineweaver-Burk plot analysis; conditions: time 30.0 min
[5] = target: Maltase-glucoamylase (Homo sapiens) (UniProt O43451); test: Competitive inhibition of alpha-glucosidase (unknown origin) using pNPG as substrate preincubated with enzyme for 15 mins followed by substrate addition and measured for 15 mins by Lineweaver-Burk plot analysis; conditions: time 30.0 min

Maltase-glucoamylase (Homo sapiens), sequence (O43451 whole entry, looked up): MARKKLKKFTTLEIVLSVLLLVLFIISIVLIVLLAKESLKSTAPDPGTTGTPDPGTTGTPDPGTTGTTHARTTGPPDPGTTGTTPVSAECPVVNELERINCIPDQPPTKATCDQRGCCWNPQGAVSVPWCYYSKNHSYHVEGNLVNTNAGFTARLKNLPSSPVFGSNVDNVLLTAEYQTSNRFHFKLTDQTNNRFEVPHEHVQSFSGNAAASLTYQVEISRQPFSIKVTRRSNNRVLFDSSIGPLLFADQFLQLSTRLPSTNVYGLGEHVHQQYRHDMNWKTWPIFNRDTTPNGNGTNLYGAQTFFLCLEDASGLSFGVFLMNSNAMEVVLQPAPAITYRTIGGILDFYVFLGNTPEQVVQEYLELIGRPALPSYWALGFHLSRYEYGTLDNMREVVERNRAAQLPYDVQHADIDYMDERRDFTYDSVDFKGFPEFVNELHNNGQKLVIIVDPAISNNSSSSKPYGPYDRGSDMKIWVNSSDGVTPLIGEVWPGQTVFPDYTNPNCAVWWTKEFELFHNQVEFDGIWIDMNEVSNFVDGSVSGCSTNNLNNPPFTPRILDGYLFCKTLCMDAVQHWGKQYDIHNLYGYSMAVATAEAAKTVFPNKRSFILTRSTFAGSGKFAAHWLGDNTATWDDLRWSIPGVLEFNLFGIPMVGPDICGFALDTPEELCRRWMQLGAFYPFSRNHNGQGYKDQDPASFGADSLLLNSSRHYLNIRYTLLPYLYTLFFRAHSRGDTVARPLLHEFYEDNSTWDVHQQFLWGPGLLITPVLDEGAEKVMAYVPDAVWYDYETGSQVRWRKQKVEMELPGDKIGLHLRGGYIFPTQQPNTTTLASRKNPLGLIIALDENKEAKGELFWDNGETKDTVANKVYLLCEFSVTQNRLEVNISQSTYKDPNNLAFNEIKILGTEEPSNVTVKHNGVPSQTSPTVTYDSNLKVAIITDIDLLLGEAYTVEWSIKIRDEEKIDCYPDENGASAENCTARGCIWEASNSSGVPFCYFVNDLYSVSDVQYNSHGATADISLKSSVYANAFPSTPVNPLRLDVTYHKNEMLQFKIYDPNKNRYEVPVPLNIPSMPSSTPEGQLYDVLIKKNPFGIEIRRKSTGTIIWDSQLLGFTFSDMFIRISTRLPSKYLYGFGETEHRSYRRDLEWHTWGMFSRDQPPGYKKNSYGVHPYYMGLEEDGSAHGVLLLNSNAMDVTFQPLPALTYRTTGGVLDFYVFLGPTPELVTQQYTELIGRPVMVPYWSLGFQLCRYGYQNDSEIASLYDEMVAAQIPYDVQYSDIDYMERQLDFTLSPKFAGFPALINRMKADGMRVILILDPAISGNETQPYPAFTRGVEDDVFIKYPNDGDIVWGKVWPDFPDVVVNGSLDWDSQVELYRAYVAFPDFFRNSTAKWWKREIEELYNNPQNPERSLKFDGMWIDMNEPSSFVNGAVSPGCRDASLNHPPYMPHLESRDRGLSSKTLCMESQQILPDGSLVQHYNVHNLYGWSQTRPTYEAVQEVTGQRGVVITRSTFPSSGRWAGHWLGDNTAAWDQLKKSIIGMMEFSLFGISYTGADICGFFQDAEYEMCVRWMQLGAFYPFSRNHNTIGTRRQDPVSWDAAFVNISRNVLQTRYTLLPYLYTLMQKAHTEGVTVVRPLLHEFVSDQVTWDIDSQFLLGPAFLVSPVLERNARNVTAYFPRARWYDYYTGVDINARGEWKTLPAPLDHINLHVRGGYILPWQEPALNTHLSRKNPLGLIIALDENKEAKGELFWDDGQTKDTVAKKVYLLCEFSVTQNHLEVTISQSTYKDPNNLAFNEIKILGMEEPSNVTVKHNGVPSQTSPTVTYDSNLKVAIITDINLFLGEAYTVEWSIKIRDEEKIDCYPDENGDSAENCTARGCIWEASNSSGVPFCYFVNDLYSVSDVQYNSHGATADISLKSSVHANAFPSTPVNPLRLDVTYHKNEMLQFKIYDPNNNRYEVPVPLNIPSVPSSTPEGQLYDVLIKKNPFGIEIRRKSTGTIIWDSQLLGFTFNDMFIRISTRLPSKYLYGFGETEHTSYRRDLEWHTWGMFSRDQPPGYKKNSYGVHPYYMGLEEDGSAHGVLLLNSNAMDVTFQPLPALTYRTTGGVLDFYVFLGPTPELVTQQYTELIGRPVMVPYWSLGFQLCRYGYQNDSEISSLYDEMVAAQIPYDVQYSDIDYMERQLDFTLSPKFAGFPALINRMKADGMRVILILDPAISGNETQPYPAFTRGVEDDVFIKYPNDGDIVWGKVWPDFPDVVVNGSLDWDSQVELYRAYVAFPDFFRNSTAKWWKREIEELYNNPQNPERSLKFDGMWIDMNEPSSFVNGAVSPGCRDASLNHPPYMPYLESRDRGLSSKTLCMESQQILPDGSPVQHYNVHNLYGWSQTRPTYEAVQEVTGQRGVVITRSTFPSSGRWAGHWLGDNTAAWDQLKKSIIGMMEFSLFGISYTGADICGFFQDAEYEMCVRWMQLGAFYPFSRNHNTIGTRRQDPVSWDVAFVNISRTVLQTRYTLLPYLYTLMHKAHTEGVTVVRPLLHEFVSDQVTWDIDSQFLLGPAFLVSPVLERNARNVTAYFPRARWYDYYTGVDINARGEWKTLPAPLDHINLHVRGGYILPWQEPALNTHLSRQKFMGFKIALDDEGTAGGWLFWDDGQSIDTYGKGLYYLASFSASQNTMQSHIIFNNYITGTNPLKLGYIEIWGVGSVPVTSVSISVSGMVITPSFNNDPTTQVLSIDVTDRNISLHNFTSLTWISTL

| Structure (SMILES) | inhibition [1] [%] | also measured |
| --- | --- | --- |
| C=CCc1ccc(O)c(-c2cc(CC=C)cc(CN3CCN(C)CC3)c2O)c1 | 9.4 |  |
| C=CCc1cc(-c2ccc(O)c(CC=C)c2)c(O)c(C(c2ccc(OC)cc2)N2CCOCC2)c1 (stereo not drawn) | 6.2 |  |
| C=CCc1cc(-c2ccc(O)c(CC=C)c2)c(O)c(C(c2ccc(Cl)cc2)N2CCCC2)c1 (stereo not drawn) | 40.6 |  |
| C=CCc1cc(CN(CC(C)C)CC(C)C)c(O)c(-c2cc(CC=C)c(O)c(CN(CC(C)C)CC(C)C)c2)c1 | 6.2 |  |
| C=CCc1ccc(O)c(-c2cc(CC=C)cc(CN(CCC)CCC)c2O)c1 | 6.3 |  |
| C=CCc1cc(CN2CCCC2)c(O)c(-c2cc(CC=C)c(O)c(CN3CCCC3)c2)c1 | 4.7 |  |
| C=CCc1cc(CN(CCC)CCC)c(O)c(-c2cc(CC=C)c(O)c(CN(CCC)CCC)c2)c1 | 4.8 |  |
| C=CCc1cc(-c2ccc(O)c(CC=C)c2)c(O)c(C(c2ccc(OC)cc2)N2CCCCC2)c1 (stereo not drawn) | 85 | viability at 64 µM [2]: > 80% |
| C=CCc1ccc(O)c(-c2cc(CC=C)cc(CN(CCCC)CCCC)c2O)c1 | 8.2 |  |
| C=CCc1cc(CN(C)c2ccccc2)c(O)c(-c2cc(CC=C)c(O)c(CN(C)c3ccccc3)c2)c1 | 63 |  |
| C=CCc1cc(-c2cc(CC=C)c(O)c(C(c3ccc(OC)cc3)N3CCC(C)CC3)c2)c(O)c(C(c2ccc(OC)cc2)N2CCC(C)CC2)c1 (stereo not drawn) | 27.8 |  |
| C=CCc1cc(CN(CCCC)CCCC)c(O)c(-c2cc(CC=C)c(O)c(CN(CCCC)CCCC)c2)c1 | 4.7 |  |
| C=CCc1cc(-c2ccc(O)c(CC=C)c2)c(O)c(C(c2cc(OC)c(OC)c(OC)c2)N2CCCCC2)c1 (stereo not drawn) | 56.4 |  |
| C=CCc1cc(CN2CCCCC2C)c(O)c(-c2cc(CC=C)c(O)c(CN3CCCCC3C)c2)c1 (stereo not drawn) | 3.33 |  |
| C=CCc1cc(-c2ccc(O)c(CC=C)c2)c(O)c(C(c2cc(Cl)cc(Cl)c2)N2CCCCC2)c1 (stereo not drawn) | 87.7 | viability at 64 µM [2]: > 80% |
| C=CCc1cc(CN(C)C(C)C)c(O)c(-c2cc(CC=C)c(O)c(CN(C)C(C)C)c2)c1 | 4.1 |  |
| C=CCc1cc(CN(C(C)C)C(C)C)c(O)c(-c2cc(CC=C)c(O)c(CN(C(C)C)C(C)C)c2)c1 | 7.2 |  |

| Structure (SMILES) | inhibition [1] [%] | also measured |
| --- | --- | --- |
| C=CCc1cc(-c2ccc(O)c(CC=C)c2)c(O)c(C(c2cc(Cl)cc(Cl)c2)N2CCOCC2)c1 (stereo not drawn) | 92.6 | inhibition [3]: Active; inhibition [4]: Active; viability at 64 µM [2]: > 80% |
| C[C@H]1O[C@H](O[C@H]2[C@H](O)[C@@H](O)[C@@H](O[C@H]3[C@H](O)[C@@H](O)C(O)O[C@@H]3CO)O[C@@H]2CO)[C@H](O)[C@@H](O)[C@@H]1N[C@H]1C=C(CO)[C@@H](O)[C@H](O)[C@H]1O (stereo partly drawn) | 99 | inhibition [5]: Active |
| C=CCc1cc(-c2ccc(O)c(CC=C)c2)c(O)c(C(c2ccccc2)N2CCC(C)CC2)c1 (stereo not drawn) | 25.8 |  |
| C=CCc1cc(CN2CCC(C)CC2)c(O)c(-c2cc(CC=C)c(O)c(CN3CCC(C)CC3)c2)c1 | 6.5 |  |
| C=CCc1cc(-c2ccc(O)c(CC=C)c2)c(O)c(C(c2ccccc2)N2CCCCC2)c1 (stereo not drawn) | 13.6 |  |
| C=CCc1cc(-c2ccc(O)c(CC=C)c2)c(O)c(C(c2cc(OC)c(OC)c(OC)c2)N2CCCC2)c1 (stereo not drawn) | 43 |  |
| C=CCc1ccc(O)c(-c2ccc(O)c(CC=C)c2)c1 | 30.6 |  |
| C=CCc1ccc(O)c(-c2cc(CC=C)cc(CN3CCC(C)CC3)c2O)c1 | 6.3 |  |
| C=CCc1ccc(O)c(-c2cc(CC=C)cc(CN(C)C(C)C)c2O)c1 | 3.4 |  |
| C=CCc1cc(-c2ccc(O)c(CC=C)c2)c(O)c(C(c2ccc(Cl)cc2)N2CCCCC2)c1 (stereo not drawn) | 45 |  |
| C=CCc1cc(-c2ccc(O)c(CC=C)c2)c(O)c(C(c2ccc(Cl)cc2)N2CCC(C)CC2)c1 (stereo not drawn) | 8.6 |  |
| C=CCc1ccc(O)c(-c2cc(CC=C)cc(CN(CC(C)C)CC(C)C)c2O)c1 | 3.8 |  |
| C=CCc1cc(-c2cc(CC=C)c(O)c(C(c3ccc(Cl)cc3)N3CCOCC3)c2)c(O)c(C(c2ccc(Cl)cc2)N2CCOCC2)c1 (stereo not drawn) | 80.1 | viability at 64 µM [2]: > 80% |
| C=CCc1cc(-c2ccc(O)c(CC=C)c2)c(O)c(C(c2cc(Cl)cc(Cl)c2)N2CCC(C)CC2)c1 (stereo not drawn) | 97.5 | inhibition [3]: Active; inhibition [4]: Active; viability at 64 µM [2]: > 80% |
| C=CCc1ccc(O)c(-c2cc(CC=C)cc(CN(C)c3ccccc3)c2O)c1 | 15.5 |  |
| C=CCc1ccc(O)c(-c2cc(CC=C)ccc2O)c1 | 9.6 |  |
